Measurements reported in patent publication US20230002736A1, “ENDODERM DIFFERENTIATION FROM PLURIPOTENT STEM CELL LINES” (priority 2019, published 2023).

How the values were obtained:
iPSC lines = type: cell-based
Description: Induction of Definitive Endoderm (days 1-7). iPSCs were plated on 6-, 12-, or 96-well Matrigel-coated plates at different densities for differentiation in iPSC media containing 10 μM Y-27632 and 2 μM doxycycline. For example, typical plating density in a single well of a 6-well plate was 500,000 cells or 20,000 cells per well for 96-well plates. The differentiation process consisted of one week of RPMI media supplemented with Gem21 NeuroPlex without insulin at 1× (supplied at 50×, Gemini Bio-Products West Sacramento, Calif., catalog #400-962, or supplemented with Gibco B27 without insulin at 1×), Glutagro at 1× (Corning, Manassas, Va., catalog #25-015-CI, non-essential amino acids at 1× (Gibco, catalog #11-140-050), sodium butyrate (0.5 mM, Sigma Aldrich, catalog #B5887) and recombinant human Activin A (100 ng/mL, Peprotech, Rocky Hill, N.J., catalog #120-14E) for 7 days. On day 1, 2% KnockOut Serum Replacement (KSR; Gibco Catalog #10828028), CHIR-99021 (10 ng/mL, Selleckchem catalog #S2924), PI-103 (10 ng/mL,Selleckchem catalog #S1038), recombinant human BMP4 (10 ng/mL, Peprotech catalog #120-05ET) and FGF2 (20 ng/mL, Peprotech catalog #100-18B) were added to the media. On day 2, 1% KSR, PI-103 (10 ng/mL) and BMP4 (10 ng/mL) and FGF2 (20 ng/mL) and on day 3, 0.2% KSR and PI-103 (10 ng/mL) were added to the media. Doxycycline hyclate (Acros Organics catalog #446061000) was added throughout definitive endoderm induction starting on day 0 (passage day) at various concentrations, as described herein, with a standard concentration being 2 μM. These steps can be performed at normal room oxygen at about 20% or at low oxygen between 4 and 6%.

Cleaved Caspase 3 (CC3) = assay: Cleaved caspase 3 immunofluorescence during endoderm induction; type: cell-based, human; settings: 48 hours of induction, 4 different cell-line experiments
Description: Immunohistochemistry and Cell staining. iPSCs, endodermal cells and iHeps were fixed using 4% paraformaldehyde for 15 minutes, permeabilized using 0.1% Triton X-100 for 10 minutes followed by 3× PBS (phosphate buffered saline, Corning Life Sciences) rinses and blocking with 1.5% bovine serum albumin for 1 hour. Samples were incubated with primary antibody overnight. […]
As a first step to understand the mechanism by which doxycycline was affecting induction of iPSCs into endoderm, we explored whether doxycycline was affecting proliferation versus cellular death. […] After quantification, we noted both significant Ki-67 staining and cleaved caspase 3 (CC3) staining, as expected (FIG. 3A). […]

## C[C@H]1c2cccc(O)c2C(=O)C2=C(O)[C@]3(O)C(=O)C(C(N)=O)=C(O)[C@@H](N(C)C)[C@@H]3[C@@H](O)[C@@H]21 [doxycycline]
iPSC lines; by the third day of induction
  concentration giving total cell death: > 10000 ng/mL
iPSC lines; endoderm induction
  concentration tolerated by the cells: up to 10 μg/mL
Cleaved Caspase 3 (CC3)
  decrease in CC3 staining: greater than 50%
